ChEMBL document CHEMBL3352081, “Wnt/β-Catenin Signaling Pathway Inhibitors: A Promising Cancer Therapy” (ACS Med Chem Lett, 2014)

Test system: HT-29
Experiment: Inhibition of Wnt pathway in human HT29 cells after 24 hrs by TCF-driven luciferase reporter gene assay
Format: cell-based
Conditions: HT-29, 24 h

Question: Which IC50 does the source give for `O=C(Nc1ccccc1F)C1CCN(c2ccnc3nsnc23)CC1` here?
Answer: < 5000 nM

Question: How did the IC50 turn out when `O=C(Nc1ccc(C(F)(F)F)cn1)C1CCN(c2ccnc3nsnc23)CC1` was run?
Answer: < 50 nM

Question: Which IC50 does the source give for `Cc1ccccc1CNC(=O)C1CCN(c2ccnc3nsnc23)CC1` here?
Answer: < 100 nM

Question: Which IC50 does the source give for `c1ccc(N2C[C@@H]3C[C@H]2CN3c2ccnc3nsnc23)cc1` here?
Answer: < 50 nM

Question: For `O=C(Nc1cc2ccccc2cn1)C1CCN(c2ccnc3nsnc23)CC1`, which IC50 is on record?
Answer: < 500 nM

Question: `c1ccc(N2C[C@@H]3C[C@H]2CN3c2ncnc3nsnc23)nc1` was tested. Which IC50 did it give?
Answer: < 1000 nM
